Test results published in US5658890A, “C-nucleoside isostere of nicotinamide adenine dinucleotide, analogs thereof and use as anti-cancer agent” (Sloan-Kettering Institute for Cancer Research, priority 1995, dated 1997).
Read-outs that look alike come from different tables or passages of the source.

How the values were obtained:
cell membranes = conditions: compared with tiazofurin; personal communication (ref. 35); cited from earlier work
Human IMPDH type II = target: T1, Human IMPDH type II (Homo sapiens, UniProt P12268); assay: Inhibition of human IMPDH type II by TAD analogues; type: biochemical
T1 construct: Dr. George D. Markham, Institute for Cancer Research, Fox Chase Cancer Center, Fox Chase, Pa
Protocol: Purified human recombinant IMPDH-II was obtained from Dr. George D. Markham of the Institute for Cancer Research, Fox Chase Cancer Center, Fox Chase, Pa. Horse liver ADH was obtained in crystalline form from Boehringer Mannheim Biochemicals, Indianapolis. β-Nicotinamide adenine dinucleotide (NAD) in crystalline free acid form was also obtained from Boehringer. Inosine 5'-monophosphate (IMP) was purchased from Sigma Chemical Co., St. Louis as the disodium salt. All solutions were prepared using nano-pure water.
Kinetic constants of the inhibitors with respect to NAD were obtained by monitoring spectrophotometrically the rate of production of NADH during the reaction.
Human IMPDH type II was stored at -70° C. in buffer containing 20 mM KCl, 1 mM EDTA, 1 mM DTT and 20 mM Tris-HCl adjusted to pH 8 at 23° C. In preparation for the assays, a frozen aliquot was thawed rapidly and filtered through a 0.45 μm acetate filter. Protein concentration was determined from a Coomassie Assay. In some cases the enzyme was diluted 4:1 in similar 20 mM Tris buffer. NAD and IMP solutions were prepared based on molecular weight.
Combination of the reactants was performed as follows: An aliquot of substrate solution was pipetted down one side of a cuvet, one of co-factor down another side, and inhibitor down a third. The volume was brought to 990 μL with reaction buffer and the cuvet was agitated. This mixture was allowed to incubate in the spectrophotometer sample holder for five minutes before the reaction was started, the temperature held at 37° C. by a circulating water bath. The reaction was initiated by the introduction of 10 μL of enzyme solution on a mixing plunger, and NADH production was monitored for between two and 10 minutes, depending on the activity of the protein solution.
The uninhibited rate of reaction as a function of cofactor concentration was first established. Velocities at four NAD concentrations and saturating substrate concentrations were measured and Km for NAD obtained. Inhibitor was then introduced to the reaction mixture with an NAD concentration in the vicinity of Km.
Lineweaver-Burk plots were used to assess the quality of the data and to initially characterize the mode of inhibition with respect to NAD. […] Consequently, values of kii (intercept) and kis (slope) reported in Table I were obtained from direct least squares fits to the expression:
where vo is the measured initial rate, Vm is the maximum rate, Km is the Michaelis constant of NAD, and [A] is concentration of NAD.

[1] = target: T2, horse liver alcohol dehydrogenase (LADH) (Equus caballus, UniProt P00327); assay: Preliminary assays of horse liver alcohol dehydrogenase (LADH) inhibition; type: biochemical; conditions: ethanol 1.2 mM, pH 8, read-out: level of inhibition of horse liver alcohol dehydrogenase (LADH)
T2 construct: Horse liver ADH was obtained in crystalline form; purchased Boehringer Mannheim Biochemicals, Indianapolis; host or cells: horse liver
T2 sequence (P00327 whole entry): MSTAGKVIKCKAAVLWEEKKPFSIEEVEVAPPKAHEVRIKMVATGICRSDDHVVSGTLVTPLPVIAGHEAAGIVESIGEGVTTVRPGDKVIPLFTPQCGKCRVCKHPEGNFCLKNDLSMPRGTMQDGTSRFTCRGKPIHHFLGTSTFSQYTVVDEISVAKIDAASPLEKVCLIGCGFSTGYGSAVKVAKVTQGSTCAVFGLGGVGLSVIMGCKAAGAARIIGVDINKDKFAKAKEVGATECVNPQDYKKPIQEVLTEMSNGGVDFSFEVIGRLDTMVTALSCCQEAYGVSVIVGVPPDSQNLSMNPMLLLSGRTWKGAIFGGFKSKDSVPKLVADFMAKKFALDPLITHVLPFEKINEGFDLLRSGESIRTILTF
Protocol: Purified human recombinant IMPDH-II was obtained from Dr. George D. Markham of the Institute for Cancer Research, Fox Chase Cancer Center, Fox Chase, Pa. Horse liver ADH was obtained in crystalline form from Boehringer Mannheim Biochemicals, Indianapolis. β-Nicotinamide adenine dinucleotide (NAD) in crystalline free acid form was also obtained from Boehringer. Inosine 5'-monophosphate (IMP) was purchased from Sigma Chemical Co., St. Louis as the disodium salt. All solutions were prepared using nano-pure water. Kinetic constants of the inhibitors with respect to NAD were obtained by monitoring spectrophotometrically the rate of production of NADH during the reaction. The course of the reaction was followed by measuring the changing absorbance of the reaction mixture at 340 nm, the absorbance peak for NADH, using a Beckman DU-65 spectrophotometer, and an extinction of 6.22 A mM^-1 cm^-1 for the reduced cofactor.(51) Preliminary assays of alcohol dehydrogenase were performed in a similar manner to that described above. LADH in crystalline suspension was spun down to a pellet and dissolved in 100 mM Tris-HCl buffer containing 100 mM KCl adjusted to pH 8 at 23° C. Stock solutions of NAD and ethanol were prepared in buffer based on molecular weight and volume, respectively. Ethanol was introduced as an aliquot of stock solution and its concentration was kept constant at 1.2 mM while NAD concentration was varied by serial dilution of the stock solution.

[2] = target: T3, horse liver alcohol dehydrogenase (ADH) (Equus caballus, UniProt P00327); assay: Inhibition of horse liver alcohol dehydrogenase (ADH), NADH absorbance at 340 nm; type: biochemical; conditions: for Ki: pH 8.0
T3 construct: horse liver alcohol dehydrogenase (ADH); from tissue; host or cells: horse liver
T3 sequence (P00327 whole entry): as above
Protocol: 2. Inhibition of horse liver alcohol dehydrogenase (ADH) and bovine glutamate dehydrogenase (GDH) Rate measurements for each of the dehydrogenases used in this study are based on the spectral properties of NADH. […] Rates, using absorbance measurements, were calculated using a millimolar extinction coefficient of 6.22/cm for NADH. Alcohol dehydrogenase assays were run at pH 8.0, using 0.1M sodium phosphate buffer. […] All kinetic assays were run at least in duplicate. Initial values of inhibition constants were estimated from Lineweaver-Burk plots, using linear regression to obtain values for the slope and intercept of each line. Inhibition was judged to be competitive if the values obtained for the intercepts of the appropriate polots differed by less than three standard deviations as determined by linear regression. Values for the inhibition constant, Kis was obtained using the relationship: […] where S(+) and S(-) are the slopes of the plots in the presence and absence of inhibitor, respectively, and [I] is the concentration of total added inhibitor. Where a noncompetitive pattern of inhibition was observed, a similar analysis was used to obtain Kii. Km for conenzyme was obtained from the slope and intercept obtained in plots in the absence of inhibitor, using the relationship: Km =[…]. Values of effective inhibition constants and patterns of inhibition for CNAD binding to ADH were obtained by direct least-squares fits to the nonreciprocal forms of the Michaelis-Menten rate equations. Kinetic data were fit to the following relationships, assuming both competitive and noncompetitive inhibition respectively: vo =[…]]} vo =[…] vo is the initial reaction rate, Vm is the maximal rate, and Km and [A] the Michaelis constant and concentration of the variable substrate, respectively. The pattern of inhibition considered to best account for the observed data was that giving both the smallest residuals between observed and calculated values, and the smallest standard errors in the computed kinetics constants. […] Derivation of this rate equation assumes the presence of a tight binding inhibitor, i.e., that [I]~[E]. In this experiment both inhibitor and enzyme concentration were varied. Initial rates vo were measured at total concentrations of CNAD ([I]) of 0, 2.4, 9.6, and 19.2 nM over four concentrations of ADH ([E]). Concentrations of ethanol and NAD were fixed at 1.2 […] and 87 μM at pH 8.0. The apparent inhibition constant with respect to NAD, Ki', was then obtained by non-linear least-squares fit to the rate equation under the array of experimental conditions employed. The true rate constant Ki was obtained from the apparent rate constant Ki was obtained from the apparent rate constant Ki, via the relationship: […]

[3] = test system: lactate dehydrogenase (LDH); assay: Inhibition of lactate dehydrogenase by the NAD analog; type: biochemical
[4] = test system: inosine monophosphate dehydrogenase (IMPDH); assay: Inhibition of inosine monophosphate dehydrogenase by the NAD analog; type: biochemical
[5] = test system: malate dehydrogenase (MDH); assay: Inhibition of malate dehydrogenase by the NAD analog; type: biochemical
[6] = test system: murine leukemia L1210 cells; assay: Cytotoxicity to murine leukemia L1210 cells; type: cell-based; conditions: Mus musculus, incubated 24 and 48 hr, cells counted in a Coulter counter, read-out: inhibits the proliferation of L1210 cells by 50% (IC50)
Protocol: 1. Cytoxicity of 5-(β-D-ribofuranosyl)nicotinamide-(5'-5")-adenosine pyrophosphate (Compound 2, CNAD) to murine leukemia L1210 cells.
Murine leukemia L1210 cells were grown in RPMI 1640 medium. Logarithmically growing cells were incubated with various concentrations of CNAD for 24 and 48 hr periods and the cytoxicity determined by counting the cells in a Coulter counter.

[7] = target: bovine glutamate dehydrogenase (GDH) (Bos taurus, UniProt P00366); assay: Inhibition of bovine glutamate dehydrogenase (GDH); type: biochemical
Sequence of bovine glutamate dehydrogenase (GDH) (P00366 58-558): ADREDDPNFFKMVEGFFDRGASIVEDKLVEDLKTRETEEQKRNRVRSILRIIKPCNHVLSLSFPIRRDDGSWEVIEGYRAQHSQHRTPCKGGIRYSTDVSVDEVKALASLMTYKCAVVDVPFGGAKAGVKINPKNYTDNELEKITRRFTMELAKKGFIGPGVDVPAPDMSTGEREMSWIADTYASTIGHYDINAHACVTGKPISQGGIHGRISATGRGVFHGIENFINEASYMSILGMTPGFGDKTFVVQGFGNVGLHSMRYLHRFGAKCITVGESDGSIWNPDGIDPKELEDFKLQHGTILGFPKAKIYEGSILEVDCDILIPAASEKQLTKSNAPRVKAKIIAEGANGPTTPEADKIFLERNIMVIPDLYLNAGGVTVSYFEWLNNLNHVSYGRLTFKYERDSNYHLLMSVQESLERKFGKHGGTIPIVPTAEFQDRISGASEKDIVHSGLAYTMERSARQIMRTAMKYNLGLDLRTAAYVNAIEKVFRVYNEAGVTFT
Protocol: 2. Inhibition of horse liver alcohol dehydrogenase (ADH) and bovine glutamate dehydrogenase (GDH)
Rate measurements for each of the dehydrogenases used in this study are based on the spectral properties of NADH. In assays with NAD as a substrate, rates were determined by measuring the increase in absorbance at 340 nm resulting from the conversion of NAD to NADH. Rates, using absorbance measurements, were calculated using a millimolar extinction coefficient of 6.22/cm for NADH.
Alcohol dehydrogenase assays were run at pH 8.0, using 0.1M sodium phosphate buffer. Glutamate dehydrogenase assays were at pH 7.0 in 0.1M sodium phosphate buffer, containing 10 μm EDTA. All kinetic assays were run at least in duplicate.
Initial values of inhibition constants were estimated from Lineweaver-Burk plots, using linear regression to obtain values for the slope and intercept of each line. Inhibition was judged to be competitive if the values obtained for the intercepts of the appropriate polots differed by less than three standard deviations as determined by linear regression. Values for the inhibition constant, Kis was obtained using the relationship:
where S(+) and S(-) are the slopes of the plots in the presence and absence of inhibitor, respectively, and [I] is the concentration of total added inhibitor. […]

[8] = NAD variable substrate, IMP constant at 100 μM, non-competitive, 37° C., read-out: Kii
[9] = NAD variable substrate, IMP constant at 100 μM, non-competitive, 37° C., read-out: Kis
[10] = IMPDH type II, read-out: Kis (binding)

SMILES | Ki (Human IMPDH type II; [8]) | Ki (Human IMPDH type II; [9]) | Ki (Human IMPDH type II; [10]) | Ki [1] | pattern of inhibition of ADH with respect to NAD [2] | other results
NC(=O)c1csc([C@@H]2O[C@H](COP(=O)(O)OP(=O)(O)OC[C@H]3O[C@@H](n4cnc5c(N)ncnc54)[C@H](O)[C@@H]3F)[C@@H](O)[C@H]2O)n1 [Compound 4, P^1-(Tiazofurin-5'-yl)-P^2-(3'-deoxy-3'-fluoroadenosin-5'-yl)pyrophosphate] | 0.7 ± 0.1 µM | 1.5 ± 0.6 µM | 0.7 µM | 100 µM | – | –
NC(=O)c1cccc([C@@H]2O[C@H](COP(=O)(O)OP(=O)(O)OC[C@H]3O[C@@H](n4cnc5c(N)ncnc54)[C@H](O)[C@@H]3O)[C@@H](O)[C@H]2O)n1 [C-PAD, 6-(β-D-ribofuranosyl)picolinamide-(5'-5")adenosine pyrophosphate] | – | – | – | – | competitive | Ki ([2]; competitive, read-out: Ki, inhibition of ADH with respect to NAD): 20 µM
NC(=O)c1cncc([C@@H]2O[C@H](COP(=O)(O)OP(=O)(O)OC[C@H]3O[C@@H](n4cnc5c(N)ncnc54)[C@H](O)[C@@H]3O)[C@@H](O)[C@H]2O)c1 [CNAD, 5-(β-D-ribofuranosyl)nicotinamide-(5'-5")-adenosine pyrophosphate] | – | – | – | – | non-competitive | pattern of inhibition of LDH with respect to NAD [3]: competitive; pattern of inhibition of IMPDH with respect to NAD [4]: competitive; pattern of inhibition of MDH with respect to NAD [5]: competitive; inhibitory activity against alcohol dehydrogenase from horse liver (in words) [2]: highly potent and selective inhibitory activity; Ki ([2]; direct least-squares fit to Michaelis-Menten rate equations, read-out: apparent Ki (Ki') with respect to NAD): 0.006 µM; Ki ([2]; non-competitive, with respect to NAD, read-out: Ki, inhibition of ADH): 0.002 µM; IC50 [6]: 7 µM; pattern of inhibition of GDH with respect to NAD [7]: competitive; Ki ([7]; competitive, pH 7.0): 15 µM

Second part, led by results:

Ki (Human IMPDH type II; [8]) | Ki (Human IMPDH type II; [9]) | Ki (Human IMPDH type II; [10]) | Ki [1] | SMILES | pattern of inhibition of ADH with respect to NAD [2] | other results
0.17 ± 0.03 µM | 0.3 ± 0.2 µM | – | – | NC(=O)c1csc([C@@H]2O[C@H](COP(=O)(O)C(F)(F)P(=O)(O)OC[C@H]3O[C@@H](n4cnc5c(N)ncnc54)[C@H](O)[C@@H]3O)[C@@H](O)[C@H]2O)n1 [β-CF2 -TAD, β-difluoromethylene TAD] | – | penetration of cell membranes (cell membranes): can penetrate cell membranes although not as efficiently as tiazofurin; Ki (Human IMPDH type II; IMPDH type II, read-out: Ki): 0.17 µM
0.5 ± 0.1 µM | 6 ± 12 µM | 0.5 µM | 100 µM | NC(=O)c1csc([C@@H]2O[C@H](COP(=O)(O)OP(=O)(O)OC[C@H]3O[C@@H](n4cnc5c(N)ncnc54)[C@H](F)[C@@H]3O)[C@@H](O)[C@H]2O)n1 [Compound 3, P^1-(Tiazofurin-5'-yl)-P^2-(2'-deoxy-2'-fluoroadenosin 5'-yl)pyrophosphate] | – | –
2.9 ± 0.5 µM | 13 µM | 2.9 µM | > 10000 µM | NC(=O)c1csc([C@@H]2O[C@H](COP(=O)(O)OP(=O)(O)OC[C@H]3O[C@@H](n4cnc5c(N)ncnc54)[C@@H](F)[C@@H]3O)[C@@H](O)[C@H]2O)n1 [Compound 5] | – | –
